Patent US20230338463A1, “ICD PEPTIDE AND USE THEREOF FOR HAVING CYTOTOXIC ACTIVITY ON CANCER CELLS” (NATIONAL TSING HUA UNIVERSITY, priority 2022, published 2023)
Non-standard residues stand in square brackets, D forms with d. Residues, ends and D or L forms follow the SMILES beside them. 2Nal = N[C@@H](Cc1ccc2ccccc2c1)C(=O)O

Legend:
PC 9 cells [1] = experiment: Extracellular HMGB1 Western blot, PC 9; format: cell-based, human
Procedure: HMGB 1 is a chromatin-binding protein and plays an important role as an indicator in the peptide induced immunogenic cell death. In one embodiment, the PC 9 cells were seeded at the density of 2 × 10^4 cells/well under the culture condition in 6-well plate as mentioned earlier in the cell viability determination and left to adhere for 48 hrs. The cells were treated with 56.22 µM of SEQ ID NO:3, 128.38 µM of SEQ ID NO:4 and 142.9 µM of SEQ ID NO: 5 peptides which is the two-fold IC50 concentration for 1 hour (FIG. 4A), 2 hour (FIG. 4B), 4 hour (FIG. 4C) under the incubation condition of humidified 5% CO2 and 37° C. The ICD peptides used were dissolved thoroughly in the serum-free medium (RPMI 1640) before treating the cells.
After the treatment of ICD peptides, the supernatant and lysate of the cells were collected separately for the further experiment. The supernatant was centrifuged at the speed of 1,500 RCF while the cell lysate was undergoing the centrifugation at 14,000 rpm for 5 minutes under the temperature of 4° C. Then, the pellet collected from the supernatant and supernatant of centrifuged cell lysate were discarded. The harvested pellet of cell lysate was washed twice using 200 µL PBS each time preliminarily the sonication of the pellet using bio-disruptor. The disrupted pellet was centrifuged again for 10 minutes under 14,000 rpm and 4° C.
The concentration of the samples was quantified using the commercially available protein quantification assay such as Bradford assay to make sure the amount of the protein was equally loaded in each of the well for SDS-PAGE gel.
The transfer process from polyacrylamide gel to PVDF membrane was performing for 75 minutes under 30 V and 400 mA as well as semi-dry condition. PBST buffer was used to wash the PVDF membrane three times after the transfer process.
The anti-HMGB1 antibody (Abcam, Cambridge, UK, ab18256) will be the primary antibody and incubated overnight at 4° C. in the dilution ratio of 1: 1000. […]

MN-11 cell line = format: cell-based, murine; conditions: 2 h
Procedure: Besides, evaluation of the killing kinetics of Nal-P-113, Bip-P-113 and Dip-P-113 for MN-11 was determined by MTT assay. Two-fold half 1inhibitory concentration (2 × IC50) was chosen for the experiments and the results were recorded at selected time points (30 mins, 1 hour, 2 hours and 4 hours). […] In 2 hours, the cell survival rate was near 50%.

MN-11 cells = experiment: DCFDA cellular ROS detection, MN-11; format: cell-based, murine; conditions: MN-11, 2 × IC50, 2-hour treatment
Procedure: However, MN-11 cells were seeded at the density of 25,000 cells/well in the 96-well black plate and allowed to adhere for 24 hours. Cells were washed with a 100 µL/well of PBS to remove the RPMI 1640 medium, and incubated with 100 µL of the 25 µM DCFDA solution for 45 minutes at 37° C. in the dark condition. 100 µL/ well of PBS buffer was washed again for the removal of 25 µM DCFDA solution. The MN-11 cells were treated with Nal-P-113, Bip-P-113 and Dip-P-113 at 2× IC50 for 2 hours. Cells incubated with DMEM without phenol red was used as negative control, and the positive control was tertbutyl hydroperoxide (TBHP) diluted in the 1x Supplemented Buffer. The fluorescence intensity of cellular ROS was determined to an excitation wavelength of 485 nm and an emission wavelength of 535 nm on the Wallac VICTOR 3 Multilabel plate reader (PerkinElmer, Shelton, CT, USA).

PC 9 cells [2] = experiment: Extracellular cytochrome c ELISA, PC 9; format: cell-based, human; conditions: PC 9, 2-fold IC50, time not stated
Procedure: The cytochrome c release was a part of mitochondrial damage-associated molecular patterns, therefore the amount of cytochrome c released into supernatant were measured by cytochrome c ELISA assay.
The cells were washed three times using PBS solution to remove all serum components and 1× 10^6 cells/ mL was solubilised in ice-cold 0.5% Triton-X 100-PBS solution at 2-8° C. for 10 minutes. Then, the speed of 16,000 xg was applied to centrifuge the extract for another 10 minutes, and serially dilute the aliquot of supernatant collected with Calibrator Diluent RD5-18 as described in the manufacturer’s protocol.
Quantifying the volume of cytochrome c released and the results were presented in FIGS. 7A-7C via ELISA assay for 0.5, 1, 1.5, and 2 hours. SEQ ID NO:4 group induced a relatively high amount of cytochrome c compared to SEQ ID NO:3 group and SEQ ID NO: 5 group. The cytochrome c release for SEQ ID NO:4 group was double the amount of SEQ ID NO:3 group and SEQ ID NO: 5 group. The trend of cytochrome c release in SEQ ID NO:4 and SEQ ID NO:3 treated PC 9 cells were escalating from 30 minutes to 4 hours, in contrast the SEQ ID NO: 5 group has fluctuating trend. […] The highest amount of cytochrome c detected in the supernatant for SEQ ID NO:3 and SEQ ID NO: 5 were around 3.5 ng/mL and lower than 2 ng/mL for the least.

[3] = tested on: MN-11 cells (murine fibrosarcoma); format: cell-based
From the text: Medium with PBS solution was used as control group.
Besides, MTT assay was used to test the cell viability of the murine fibrosarcoma MN-11 cell line. Among the peptides, Dip-P-113 had the lowest cytotoxicity against MN-11 cells (FIG. 1F).

CC(=O)N[C@@H](C)C(=O)N[C@@H](CCCCN)C(=O)N[C@@H](CCCNC(=N)N)C(=O)N[C@@H](Cc1ccc2ccccc2c1)C(=O)N[C@@H](Cc1ccc2ccccc2c1)C(=O)NCC(=O)N[C@@H](Cc1ccc(O)cc1)C(=O)N[C@@H](CCCCN)C(=O)N[C@@H](CCCNC(=N)N)C(=O)N[C@@H](CCCCN)C(=O)N[C@@H](Cc1ccccc1)C(=O)N[C@@H](Cc1ccc2ccccc2c1)C(N)=O [SEQ ID NO:3, Ac-AKR Nal Nal GYKRKFNal-NH2] (Ac-AKR[2Nal][2Nal]GYKRKF[2Nal]-NH2)
HMGB1 in supernatant (PC 9 cells [1]; PC 9, 2 × IC50, 1 hour): nothing is observed
HMGB1 in supernatant (PC 9 cells [1]; PC 9, 2 × IC50, 2 hours): can be detected
HMGB1 in supernatant (PC 9 cells [1]; PC 9, 2 × IC50, 4 hours): obviously be seen
cell survival rate (MN-11 cell line): ~50%
fluorescence intensity of cellular ROS (ROS production) (MN-11 cells): did not change
highest amount of cytochrome c detected in the supernatant (PC 9 cells [2]): around 3.5 ng/mL
IC50 [3]: 11.1 ± 1.37 µM
